Experimental findings from ChEMBL document CHEMBL3272151, “Quantitative structure-activity relationship of chymotrypsin-ligand interactions” (J Med Chem, 1977) are described below.

Conditions in all cases: Homo sapiens
Test [1] can be described thus: Binding affinity to chymotrypsin (unknown origin) assessed as hydrolysis.
Test [2] is described as follows: Binding affinity to chymotrypsin (unknown origin).
Test [3] can be described thus: Binding affinity to chymotrypsin (unknown origin) assessed as acetylation at pH 7.
The nature of test [4]: Binding affinity to chymotrypsin (unknown origin) assessed as deacetylation.

Turning to `CCCCOC(=O)CNC(=O)c1ccccc1`, the logKcat in test [1] is -0.76. The molecule also returned a log(1/Km) in test [2] of 2.95.
`COc1ccc(OC(=O)CNC(=O)c2ccccc2)cc1`: the logKcat in test [1] was -0.25. This molecule also returned a log(1/Km) in test [2] of 3.99.
With `Cc1cccc(C(=O)Oc2ccc([N+](=O)[O-])cc2)c1`, the log K in test [3] was 3.29.
For `O=C(Oc1ccc([N+](=O)[O-])cc1[N+](=O)[O-])c1ccc(Cl)cc1`, the log K in test [3] is 5.55.
In the case of `CC(C)c1ccc(C(=O)Oc2ccc([N+](=O)[O-])cc2)cc1`, in test [3], the log K was 4.44.
Take `CS(=O)(=O)N[C@@H](Cc1ccccc1)C(=O)Oc1ccccc1`: the logKcat in test [1] is 1.51. This molecule returned a log(1/Km) in test [2] of 4.57.
In the case of `CC(=O)c1ccc(OC(=O)[C@H](Cc2ccccc2)NS(C)(=O)=O)cc1`, the logKcat in test [1] was 1.54. This molecule also yielded a log(1/Km) in test [2] of 4.89.
Take `N#Cc1ccc(C(=O)Oc2ccc([N+](=O)[O-])cc2[N+](=O)[O-])cc1`: in test [3], the log K came to 5.94.
In the case of `CC(=O)N[C@@H](Cc1ccccc1)C(=O)O[C@H](C)c1ccccc1`, the logKcat in test [1] was 2.02. In addition, in test [2], the log(1/Km) is 4.3.
For `CCCOC(=O)CNC(=O)c1ccccc1`, the logKcat in test [1] was -0.9. The log(1/Km) in test [2] was 2.72.
For `CCc1ccc(C(=O)Oc2ccc([N+](=O)[O-])cc2[N+](=O)[O-])cc1`, the log K in test [3] came to 5.53.
On to `COC(=O)[C@H](CC(C)C)NC(C)=O`, for which the logKcat in test [1] worked out at 0.7. The log(1/Km) in test [2] is 2.42. Besides, in test [4], the log K was 1.2.
For the molecule `COC(=O)[C@H](C)NC(=O)c1ccncc1`, in test [1], the logKcat is -0.38. This molecule gave a log(1/Km) in test [2] of 1.54.
Take `O=C(CNC(=O)c1ccccc1)Oc1ccc(F)cc1`: the logKcat in test [1] is -0.28. The same molecule came in with a log(1/Km) in test [2] of 3.85.
For the molecule `CS(=O)(=O)N[C@@H](Cc1ccccc1)C(=O)Oc1cccc([N+](=O)[O-])c1`, in test [1], the logKcat was determined as 1.49. The molecule further showed a log(1/Km) in test [2] of 5.06.
On to `COC(=O)[C@H](C)NC(=O)c1ccccc1N`, for which, in test [1], the logKcat is -0.62. Besides, in test [2], the log(1/Km) was 2.33.
The corresponding values for `CC(C)COC(=O)CNC(=O)c1ccccc1` are -0.78 and 2.62.
As for `CS(=O)(=O)N[C@@H](Cc1ccccc1)C(=O)Oc1ccc([N+](=O)[O-])cc1`, the log K in test [1] was 1.56. The molecule also came in with a log(1/Km) in test [2] of 5.37.
`CC(=O)c1ccc(OC(=O)CNC(=O)c2ccccc2)cc1`: in test [1], the logKcat was -0.28. This molecule also displayed a log(1/Km) in test [2] of 4.51.
Take `Cc1ccc(OC(=O)CNC(=O)c2ccccc2)cc1`: in test [1], the logKcat is -0.21. Further, the log(1/Km) in test [2] was 3.87.
The corresponding values for `COC(=O)[C@H](C)NC(=O)c1cccnc1` are -0.24 and 1.43.
As for `CC[C@@H](C)OC(=O)[C@H](Cc1ccccc1)NC(C)=O`, the logKcat in test [1] was determined as 1.98. This molecule showed a log(1/Km) in test [2] of 2.76.
`CC(=O)NCC(=O)Oc1ccc([N+](=O)[O-])cc1`: in test [1], the logKcat came out at 0.27. For the same molecule, in test [2], the log(1/Km) stood at 3.4. Also, in test [4], the log K is -0.12.
Turning to `CC(=O)N[C@@H](Cc1ccccc1)C(=O)Oc1ccc([N+](=O)[O-])cc1`, the logKcat in test [1] was 1.89. Also, the log(1/Km) in test [2] worked out at 4.62.
Take `CS(=O)(=O)N[C@@H](Cc1ccccc1)C(=O)Oc1ccc(Cl)cc1`: the log K in test [1] worked out at 1.56. This molecule gave a log(1/Km) in test [2] of 4.88.
In the case of `O=C(CNC(=O)c1ccccc1)OCc1ccncc1`, the logKcat in test [1] is -0.25. Besides, the log(1/Km) in test [2] is 4.04.
Take `CC(C)OC(=O)CNC(=O)c1ccccc1`: the logKcat in test [1] was -1.32. The log(1/Km) in test [2] is 2.69.
As for `COC(=O)[C@H](C)NC(C)=O`, the logKcat in test [1] was 0.11. This molecule yielded a log(1/Km) in test [2] of 0.21.
Take `O=C(CNC(=O)c1ccccc1)Oc1ccccc1`: the logKcat in test [1] was -0.31. In addition, the log(1/Km) in test [2] came out at 3.87.
Consider `CC[C@H](C)OC(=O)[C@H](Cc1ccccc1)NC(C)=O`, for which the logKcat in test [1] is 1.55. In test [2], this molecule had a log(1/Km) of 3.04.
Take `CC(=O)N[C@@H](Cc1ccccc1)C(=O)O[C@H](C)C1CCCCC1`: the logKcat in test [1] came to 1.29. In test [2], this molecule showed a log(1/Km) of 3.31.
Consider `O=C(CNC(=O)c1ccccc1)Oc1cccc([N+](=O)[O-])c1`, for which the logKcat in test [1] is -0.28. Besides, the log(1/Km) in test [2] turned out to be 4.17.
As for `CC[C@H](C)OC(=O)CNC(=O)c1ccccc1`, the logKcat in test [1] is -1.04. The same molecule registered a log(1/Km) in test [2] of 2.95.
The corresponding values for `CCC[C@H](NC(C)=O)C(=O)OCCCl` are 0.57 and 3.1.
Consider `Cc1ccc(OC(=O)[C@H](Cc2ccccc2)NS(C)(=O)=O)cc1`, for which the log K in test [1] came to 1.56. For the same molecule, in test [2], the log(1/Km) was found to be 4.7.
Turning to `Nc1ccc(OC(=O)CNC(=O)c2ccccc2)cc1`, the logKcat in test [1] was -0.3. The log(1/Km) in test [2] amounted to 3.77.
For the molecule `COC(=O)[C@H](C)NC(=O)c1ccccc1`, the logKcat in test [1] is -0.64. Further, in test [2], the log(1/Km) was found to be 2.01.
The corresponding values for `COC(=O)[C@H](C)NC(=O)c1cccs1` are -0.34 and 1.82.
The corresponding values for `COc1ccc(OC(=O)[C@H](Cc2ccccc2)NS(C)(=O)=O)cc1` are 1.54 and 4.82.
As for `CCOC(=O)[C@@H](NC(C)=O)c1ccccc1`, the logKcat in test [1] was -0.05. For the same molecule, the log(1/Km) in test [2] was found to be 2.48.
On to `CCCCC[C@H](NC(C)=O)C(=O)OC`, for which the logKcat in test [1] came out at 1.13. In test [2], this molecule returned a log(1/Km) of 2.79.
For `COC(=O)[C@H](C)NC(=O)c1ccc2ccccc2n1`, in test [1], the logKcat is -2.4. The same molecule showed a log(1/Km) in test [2] of 3.66.
Regarding `CCC[C@H](NC(C)=O)C(=O)OC(C)C`, in test [1], the logKcat came out at 0.46. The same molecule had a log(1/Km) in test [2] of 1.51.
Take `COC(=O)[C@H](CC1CCCCC1)NC(C)=O`: in test [1], the logKcat was determined as 1.18. In addition, in test [2], the log(1/Km) worked out at 3.72.
`CCOC(=O)C(NC(C)=O)C(=O)OCC`: the logKcat in test [1] was -0.15. In test [2], this molecule had a log(1/Km) of 1.51.
As to `COC(=O)[C@H](C)NC(=O)c1ccccn1`, the logKcat in test [1] is -1.15. The log(1/Km) in test [2] worked out at 1.74.
Turning to `CC(=O)NCC(=O)O[C@H](C)c1ccccc1`, the logKcat in test [1] is -0.6. In test [2], this molecule displayed a log(1/Km) of 3.66.
For `CC(=O)N[C@H](C(=O)OCCCl)C(C)C`, the logKcat in test [1] was -0.64. This molecule came in with a log(1/Km) in test [2] of 1.72.
`CC(=O)N[C@@H](Cc1ccccc1)C(=O)O[C@@H](C)C1CCCCC1`: the logKcat in test [1] was 1.37. Moreover, the log(1/Km) in test [2] was 3.28.
For `O=C(CNC(=O)c1ccccc1)Oc1ccc([N+](=O)[O-])cc1`, the logKcat in test [1] is -0.31. Besides, in test [2], the log(1/Km) was determined as 4.06.
Regarding `O=C(CNC(=O)c1ccccc1)Oc1ccc(Cl)cc1`, the logKcat in test [1] is -0.31. In test [2], this molecule returned a log(1/Km) of 3.94.
For `C[C@H](OC(=O)CNC(=O)c1ccccc1)c1ccccc1`, the logKcat in test [1] was -0.13. In test [2], this molecule registered a log(1/Km) of 3.77.
In turn, `O=C(N[C@@H](Cc1ccccc1)C(=O)Oc1ccc([N+](=O)[O-])cc1)OCc1ccccc1` gave a log(1/Km) in test [2] of 6.32. In addition, the log K in test [4] turned out to be 1.59.
In the case of `CC(=O)N[C@@H](Cc1ccccc1)C(=O)O[C@@H](C)c1ccccc1`, the logKcat in test [1] was 2.04. The molecule also had a log(1/Km) in test [2] of 4.22.
As to `C[C@@H](NC(=O)OCc1ccccc1)C(=O)Oc1ccc([N+](=O)[O-])cc1`, in test [2], the log(1/Km) stood at 5.08. Further, the log K in test [4] was -1.05.
Turning to `CCCCCC[C@H](NC(C)=O)C(=O)OC`, in test [1], the logKcat was 0.79. In test [2], the log(1/Km) worked out at 2.53.
